According to US20250346575A1, “ISOINDOLINONE DERIVATIVE HAVING GLUTARIMIDE MOTHER NUCLEUS, AND USE THEREOF” (KOREA RESEARCH INSTITUTE OF CHEMICAL TECHNOLOGY, priority 2021, published 2025):

Columns and labels:
[1] = target: T1, GSPT1 protein (Homo sapiens, UniProt P15170+Q96SW2); assay: Substrate protein degradation activity of CRBN (Western blot); format: cell-based; conditions: KG-1 cell lines, 6 hours, FIG. 1
T1 construct: endogenous in cells; host or cells: KG-1 cells
From the text: Examination was made to determine whether the compounds of the present disclosure bind to cereblon (CRBN) and inhibit the function of CRBN. In this regard, the compounds were investigated for degradation activity for Ikaros (IKZF1) protein (Chamberlain, P. P. et al., 2014) or GSPT1 protein (Matyskiela, M. E. et al., 2016) which CRBN protein degrades when binding to thalidomide and analogs thereof.
In order to assay the compounds according to the present disclosure for degradation activity for Ikaros (IKZF1) protein or GSPT1 protein, experiments were carried out as follows.
KG-1 cells were seeded at a density of 5×10^5 cells per well into 12-well plates, and each compound was added at predetermined concentration to the wells. After 6 hours, cell lysates were collected using TBSN buffer. The degradation activity of Ikaros protein was assessed using an antibody against Ikaros protein, and the degradation activity of GSPT1 protein was evaluated using an antibody against GSPT1 protein through Western blot analysis. In this regard, equal amounts of protein were loaded into each well of a 4-15% gradient gel, and after electrophoresis, proteins were transferred to a PVDF membrane. Each protein was then bound with primary antibodies, followed by the attachment of HRP-conjugated secondary antibodies, and developed using an HRP substrate.

[2] = test system: Cancer cells (KG-1); assay: Cytotoxicity assay, WST-1, KG-1; format: cell-based
Description: To evaluate the effect of the compounds of the present disclosure on cancer cells, a cytotoxicity assay was conducted as follows.
Cancer cells (KG-1) were seeded at a concentration of 10,000 cells per well into a 96-well plate. Then, the cells were treated with predetermined concentrations of compounds of the Examples and comparative substances (comparative compounds 1, 2, 3). After 72 hours, the cells were incubated with WST-1 reagent for one hour. Then, absorbance was measured at 450 nm using a spectramax spectrophotometer to assess the degree of cancer cell apoptosis. The IC50 (μM) values were calculated using the measured values with the GraphPad Prism program and the measurements are summarized in Table 1.

T1 sequence (P15170 whole entry): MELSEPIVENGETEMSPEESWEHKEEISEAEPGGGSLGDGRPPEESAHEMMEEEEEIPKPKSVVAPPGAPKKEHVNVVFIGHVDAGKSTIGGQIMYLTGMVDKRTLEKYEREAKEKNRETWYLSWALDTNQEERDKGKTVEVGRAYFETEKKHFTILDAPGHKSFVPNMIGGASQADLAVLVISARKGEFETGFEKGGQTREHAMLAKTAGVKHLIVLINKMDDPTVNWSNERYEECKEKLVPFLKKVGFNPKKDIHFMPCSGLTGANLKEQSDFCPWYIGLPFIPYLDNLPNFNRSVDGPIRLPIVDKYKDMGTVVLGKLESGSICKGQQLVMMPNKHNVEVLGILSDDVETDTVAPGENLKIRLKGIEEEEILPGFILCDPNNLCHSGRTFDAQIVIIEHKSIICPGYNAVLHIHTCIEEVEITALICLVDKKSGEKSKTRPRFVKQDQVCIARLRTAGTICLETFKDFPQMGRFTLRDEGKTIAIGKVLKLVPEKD
T1 sequence (Q96SW2 whole entry): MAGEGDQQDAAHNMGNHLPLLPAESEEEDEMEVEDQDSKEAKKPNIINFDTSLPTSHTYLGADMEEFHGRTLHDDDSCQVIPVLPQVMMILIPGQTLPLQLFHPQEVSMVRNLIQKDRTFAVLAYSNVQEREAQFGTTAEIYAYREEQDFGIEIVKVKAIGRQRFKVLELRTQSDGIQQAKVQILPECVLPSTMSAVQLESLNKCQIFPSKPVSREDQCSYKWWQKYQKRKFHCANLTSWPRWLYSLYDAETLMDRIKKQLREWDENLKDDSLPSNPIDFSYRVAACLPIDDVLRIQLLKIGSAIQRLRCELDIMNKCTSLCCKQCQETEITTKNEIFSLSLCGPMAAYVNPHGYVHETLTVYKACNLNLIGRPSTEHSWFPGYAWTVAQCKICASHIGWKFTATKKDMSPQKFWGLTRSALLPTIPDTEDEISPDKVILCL
T1 sequence (Q16531 whole entry partner): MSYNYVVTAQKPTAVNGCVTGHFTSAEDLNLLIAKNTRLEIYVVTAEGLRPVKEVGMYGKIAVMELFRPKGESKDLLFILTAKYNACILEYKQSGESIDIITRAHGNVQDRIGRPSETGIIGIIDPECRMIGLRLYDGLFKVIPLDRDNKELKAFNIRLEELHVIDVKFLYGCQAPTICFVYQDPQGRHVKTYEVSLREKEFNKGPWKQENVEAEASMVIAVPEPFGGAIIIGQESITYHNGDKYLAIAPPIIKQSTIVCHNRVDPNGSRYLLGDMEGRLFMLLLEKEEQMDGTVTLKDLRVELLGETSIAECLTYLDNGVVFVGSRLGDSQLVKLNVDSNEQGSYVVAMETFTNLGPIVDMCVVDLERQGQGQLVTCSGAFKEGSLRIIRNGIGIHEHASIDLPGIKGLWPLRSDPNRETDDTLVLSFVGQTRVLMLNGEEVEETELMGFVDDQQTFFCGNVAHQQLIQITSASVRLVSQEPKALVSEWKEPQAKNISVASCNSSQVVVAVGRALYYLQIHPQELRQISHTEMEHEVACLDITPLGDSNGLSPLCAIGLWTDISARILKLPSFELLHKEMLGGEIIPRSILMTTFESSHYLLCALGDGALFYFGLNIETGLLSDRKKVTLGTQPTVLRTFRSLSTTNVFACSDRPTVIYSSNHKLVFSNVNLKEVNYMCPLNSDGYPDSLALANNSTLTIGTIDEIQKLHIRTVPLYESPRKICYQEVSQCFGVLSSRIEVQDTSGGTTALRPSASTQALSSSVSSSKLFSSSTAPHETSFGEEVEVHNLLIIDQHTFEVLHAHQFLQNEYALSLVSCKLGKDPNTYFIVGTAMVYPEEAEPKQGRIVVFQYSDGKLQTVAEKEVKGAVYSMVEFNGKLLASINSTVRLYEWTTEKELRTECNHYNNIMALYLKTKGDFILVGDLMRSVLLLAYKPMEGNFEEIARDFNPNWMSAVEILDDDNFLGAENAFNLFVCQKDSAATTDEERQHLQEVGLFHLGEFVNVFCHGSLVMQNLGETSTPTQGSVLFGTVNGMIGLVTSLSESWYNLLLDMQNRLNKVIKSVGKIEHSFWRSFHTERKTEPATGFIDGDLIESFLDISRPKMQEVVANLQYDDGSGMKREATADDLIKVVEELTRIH

Q: How did the “degradation of GSPT1 protein” value [1] turn out when O=C1CCC(N2Cc3cc(CNC(=O)c4noc5cc(Cl)ccc45)ccc3C2=O)C(=O)N1 (stereo not drawn) [Compound 10, 6-Chloro-N-((2-(2,6-dioxopiperidin-3-yl)-1-oxoisoindolin-5-yl)methyl)benzo[d]isoxazole-3-carboxamide] was run?
A: selectively promote the degradation of GSPT1 protein

Q: And the IC50 ([2]; Homo sapiens, KG-1 cells, 72 hours, WST-1)?
A: 0.0001 to 0.01 µM

Q: What about the “cytotoxic activity against KG-1 and NCI-H1155 cancer cells (in words)” value ([2]; R1 bicyclic heteroaryl compared to monocyclic aryl (comparative substance) or heteroaryl (Compounds 37 and 38)) of the same molecule?
A: more potent cytotoxic activity
